Source: the supplement of paper PMC10307832

What was measured:
Test in all cases: relative viability (nuclei count vs DMSO), 5 days (fraction); higher = more cells survive
SK-LU-1 = test system: SK-LU-1
Outline: (§1)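 Relative viability is defined as nuclei in treated wells over nuclei in vehicle wells. Duplicate plates were run and medians reported. Lung cancer cell lines in 1536-well plates were dosed by pin tool one day after seeding, with one drug or with a fixed anchor-drug dose plus five library-drug doses (not always all listed) in √10 steps, and nuclei were counted after 5 days.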

HCC-366 = test system: HCC-366
Outline: as §1

LC-2-ad = test system: LC-2-ad
Outline: as §1

HCC-78 = test system: HCC-78
Outline: as §1

NCI-H2405 = test system: NCI-H2405
Outline: as §1

ABC-1 = test system: ABC-1
Outline: as §1

NCI-H23 = test system: NCI-H23
Outline: as §1

NCI-H2023 = test system: NCI-H2023
Outline: as §1

HARA = test system: HARA
Outline: as §1

NCI-H2228 = test system: NCI-H2228
Outline: as §1

NCI-H1793 = test system: NCI-H1793
Outline: as §1

HCC-15 = test system: HCC-15
Outline: as §1

NCI-H1944 = test system: NCI-H1944
Outline: as §1

NCI-H2126 = test system: NCI-H2126
Outline: as §1

NCI-H2009 = test system: NCI-H2009
Outline: as §1

EMC-BAC-2 = test system: EMC-BAC-2
Outline: as §1

NCI-H838 = test system: NCI-H838
Outline: as §1

NCI-H1993 = test system: NCI-H1993
Outline: as §1

UMC-11 = test system: UMC-11
Outline: as §1

COR-L23 = test system: COR-L23
Outline: as §1

NCI-H1734 = test system: NCI-H1734
Outline: as §1

A-427 = test system: A-427
Outline: as §1

ChaGo-K-1 = test system: ChaGo-K-1
Outline: as §1

Q: With `O=C(O)c1ccc(-c2c[nH]c3ncc(-c4ccccc4)cc23)cc1C1CCCC1` + Cc1nc(Nc2ncc(C(=O)Nc3c(C)cccc3Cl)s2)cc(N2CCN(CCO)CC2)n1 [Dasatinib] (partner 0.075 µM) as the compound, how does the relative viability (SK-LU-1; first compound 0.04 µM) read?
A: 0.169

Q: And the relative viability (SK-LU-1; first compound 0.1265 µM)?
A: 0.194

Q: What about the relative viability (SK-LU-1; first compound 0.4 µM) of the same compound?
A: 0.157

Q: And the relative viability (SK-LU-1; first compound 1.265 µM)?
A: 0.165

Q: And the relative viability (HCC-366; first compound 0.04 µM)?
A: 0.583

Q: And the relative viability (HCC-366; first compound 0.1265 µM)?
A: 0.786

Q: What about the relative viability (HCC-366; first compound 0.4 µM) of the same compound?
A: 0.689

Q: What about the relative viability (HCC-366; first compound 1.265 µM) of the same compound?
A: 0.669

Q: What about the relative viability (LC-2-ad; first compound 0.04 µM) of the same compound?
A: 0.505

Q: And the relative viability (LC-2-ad; first compound 0.1265 µM)?
A: 0.813

Q: And the relative viability (LC-2-ad; first compound 0.4 µM)?
A: 0.489

Q: What about the relative viability (LC-2-ad; first compound 1.265 µM) of the same compound?
A: 0.463

Q: What about the relative viability (HCC-78; first compound 0.1265 µM) of the same compound?
A: 0.516

Q: And the relative viability (HCC-78; first compound 0.4 µM)?
A: 0.485

Q: And the relative viability (HCC-78; first compound 1.265 µM)?
A: 0.406

Q: What about the relative viability (NCI-H2405; first compound 0.04 µM) of the same compound?
A: 0.207

Q: What about the relative viability (NCI-H2405; first compound 0.1265 µM) of the same compound?
A: 0.253

Q: And the relative viability (NCI-H2405; first compound 0.4 µM)?
A: 0.191

Q: And the relative viability (NCI-H2405; first compound 1.265 µM)?
A: 0.191

Q: And the relative viability (ABC-1; first compound 0.04 µM)?
A: 0.588

Q: What about the relative viability (ABC-1; first compound 0.1265 µM) of the same compound?
A: 0.629

Q: And the relative viability (ABC-1; first compound 0.4 µM)?
A: 0.551

Q: What about the relative viability (ABC-1; first compound 1.265 µM) of the same compound?
A: 0.604

Q: And the relative viability (NCI-H23; first compound 0.04 µM)?
A: 0.82

Q: And the relative viability (NCI-H23; first compound 0.1265 µM)?
A: 1.04

Q: And the relative viability (NCI-H23; first compound 0.4 µM)?
A: 0.729

Q: And the relative viability (NCI-H23; first compound 1.265 µM)?
A: 0.717

Q: What about the relative viability (NCI-H2023; first compound 0.04 µM) of the same compound?
A: 0.575

Q: And the relative viability (NCI-H2023; first compound 0.1265 µM)?
A: 0.738

Q: What about the relative viability (NCI-H2023; first compound 0.4 µM) of the same compound?
A: 0.603

Q: And the relative viability (NCI-H2023; first compound 1.265 µM)?
A: 0.515

Q: And the relative viability (HARA; first compound 0.04 µM)?
A: 0.237

Q: What about the relative viability (HARA; first compound 0.1265 µM) of the same compound?
A: 0.294

Q: What about the relative viability (HARA; first compound 0.4 µM) of the same compound?
A: 0.308

Q: And the relative viability (HARA; first compound 1.265 µM)?
A: 0.3

Q: And the relative viability (NCI-H2228; first compound 0.04 µM)?
A: 0.601

Q: What about the relative viability (NCI-H2228; first compound 0.1265 µM) of the same compound?
A: 0.607

Q: What about the relative viability (NCI-H2228; first compound 0.4 µM) of the same compound?
A: 0.519

Q: What about the relative viability (NCI-H2228; first compound 1.265 µM) of the same compound?
A: 0.395

Q: What about the relative viability (NCI-H1793; first compound 0.04 µM) of the same compound?
A: 0.376

Q: What about the relative viability (NCI-H1793; first compound 0.1265 µM) of the same compound?
A: 0.473

Q: And the relative viability (NCI-H1793; first compound 0.4 µM)?
A: 0.373

Q: And the relative viability (NCI-H1793; first compound 1.265 µM)?
A: 0.342

Q: And the relative viability (HCC-15; first compound 0.04 µM)?
A: 0.648

Q: And the relative viability (HCC-15; first compound 0.1265 µM)?
A: 0.698

Q: What about the relative viability (HCC-15; first compound 0.4 µM) of the same compound?
A: 0.591

Q: What about the relative viability (HCC-15; first compound 1.265 µM) of the same compound?
A: 0.38

Q: And the relative viability (NCI-H1944; first compound 0.04 µM)?
A: 0.227

Q: And the relative viability (NCI-H1944; first compound 0.1265 µM)?
A: 0.254

Q: What about the relative viability (NCI-H1944; first compound 0.4 µM) of the same compound?
A: 0.216

Q: What about the relative viability (NCI-H1944; first compound 1.265 µM) of the same compound?
A: 0.193

Q: What about the relative viability (NCI-H2126; first compound 0.04 µM) of the same compound?
A: 0.641

Q: And the relative viability (NCI-H2126; first compound 0.1265 µM)?
A: 0.634

Q: What about the relative viability (NCI-H2126; first compound 0.4 µM) of the same compound?
A: 0.642

Q: And the relative viability (NCI-H2126; first compound 1.265 µM)?
A: 0.488

Q: What about the relative viability (NCI-H2009; first compound 0.04 µM) of the same compound?
A: 0.322

Q: And the relative viability (NCI-H2009; first compound 0.1265 µM)?
A: 0.312

Q: And the relative viability (NCI-H2009; first compound 0.4 µM)?
A: 0.277

Q: And the relative viability (NCI-H2009; first compound 1.265 µM)?
A: 0.264

Q: What about the relative viability (EMC-BAC-2; first compound 0.04 µM) of the same compound?
A: 0.285

Q: What about the relative viability (EMC-BAC-2; first compound 0.1265 µM) of the same compound?
A: 0.31

Q: What about the relative viability (EMC-BAC-2; first compound 0.4 µM) of the same compound?
A: 0.323

Q: What about the relative viability (EMC-BAC-2; first compound 1.265 µM) of the same compound?
A: 0.294

Q: And the relative viability (NCI-H838; first compound 0.04 µM)?
A: 0.273

Q: And the relative viability (NCI-H838; first compound 0.1265 µM)?
A: 0.299

Q: What about the relative viability (NCI-H838; first compound 0.4 µM) of the same compound?
A: 0.31

Q: And the relative viability (NCI-H838; first compound 1.265 µM)?
A: 0.293

Q: What about the relative viability (NCI-H1993; first compound 0.04 µM) of the same compound?
A: 0.592

Q: And the relative viability (NCI-H1993; first compound 0.1265 µM)?
A: 0.568

Q: What about the relative viability (NCI-H1993; first compound 0.4 µM) of the same compound?
A: 0.601

Q: What about the relative viability (NCI-H1993; first compound 1.265 µM) of the same compound?
A: 0.572

Q: And the relative viability (UMC-11; first compound 0.04 µM)?
A: 0.505

Q: What about the relative viability (UMC-11; first compound 0.1265 µM) of the same compound?
A: 0.496

Q: And the relative viability (UMC-11; first compound 0.4 µM)?
A: 0.501

Q: What about the relative viability (UMC-11; first compound 1.265 µM) of the same compound?
A: 0.433

Q: And the relative viability (COR-L23; first compound 0.04 µM)?
A: 0.485

Q: What about the relative viability (COR-L23; first compound 0.1265 µM) of the same compound?
A: 0.578

Q: What about the relative viability (COR-L23; first compound 0.4 µM) of the same compound?
A: 0.469

Q: What about the relative viability (COR-L23; first compound 1.265 µM) of the same compound?
A: 0.3

Q: And the relative viability (NCI-H1734; first compound 0.04 µM)?
A: 0.502

Q: And the relative viability (NCI-H1734; first compound 0.1265 µM)?
A: 0.437

Q: What about the relative viability (NCI-H1734; first compound 0.4 µM) of the same compound?
A: 0.468

Q: What about the relative viability (NCI-H1734; first compound 1.265 µM) of the same compound?
A: 0.409

Q: And the relative viability (A-427; first compound 0.04 µM)?
A: 0.672

Q: And the relative viability (A-427; first compound 0.1265 µM)?
A: 0.749

Q: And the relative viability (A-427; first compound 0.4 µM)?
A: 0.64

Q: And the relative viability (A-427; first compound 1.265 µM)?
A: 0.595

Q: What about the relative viability (ChaGo-K-1; first compound 0.04 µM) of the same compound?
A: 0.602

Q: What about the relative viability (ChaGo-K-1; first compound 0.1265 µM) of the same compound?
A: 0.632

Q: And the relative viability (ChaGo-K-1; first compound 0.4 µM)?
A: 0.518

Q: And the relative viability (ChaGo-K-1; first compound 1.265 µM)?
A: 0.604
